Results: EP2649091B1, “IMMUNE RESTRICTED PEPTIDES WITH INCREASED EFFICACY” (Stichting Het Nederlands Kanker Instituut, priority 2010, dated 2012)

Experiments:
[1] = target: HLA-A0201 (Homo sapiens, UniProt P04439, D140Y/D185E/D98H/E176V/E277Q/G131W/G231S/I119V/I121R/I166T/I218V/L300P/L318F/N151K/N90K/P208A/P217A/Q86G/Q94H/R138H/R169H/T345S); assay type: binding
[2] = system: HLA-A2::Mart-1(26-35) reactive T cells stimulated by T2 cells; assay: T cell activation time course assay, IFNγ production (FACS), Mart-1 epitope; assay type: cell-based; details: for % CD8+ T cells producing IFN-γ 0H / Geometric mean IFN-γ in arbitrary fluorescence units 0H: time point 0H (basal); for % CD8+ T cells producing IFN-γ 2H / Geometric mean IFN-γ in arbitrary fluorescence units 2H: time point 2H; for % CD8+ T cells producing IFN-γ 4H / Geometric mean IFN-γ in arbitrary fluorescence units 4H: time point 4H; for % CD8+ T cells producing IFN-γ 24H / Geometric mean IFN-γ in arbitrary fluorescence units 24H: time point 24H; for % CD8+ T cells producing IFN-γ 24H / Geometric mean IFN-γ in arbitrary fluorescence units 24H / % CD8+ T cells producing IFN-γ 48H / Geometric mean IFN-γ in arbitrary fluorescence units 48H: free peptide washed away; for % CD8+ T cells producing IFN-γ 48H / Geometric mean IFN-γ in arbitrary fluorescence units 48H: time point 48H
[3] = system: SVYDFFVWL (TRP-2 180-188) reactive T cells; assay: T cell activation time course assay, IFNγ production (FACS), TRP-2 epitope; details: for % CD8+ T cells producing IFN-γ peptide concentrations in picomolar 24H 0.5 / Geometric mean IFN-γ in arbitrary fluorescence units peptide concentrations in picomolar 24H 0.5 / % CD8+ T cells producing IFN-γ peptide concentrations in picomolar 48H 0.5 / Geometric mean IFN-γ in arbitrary fluorescence units peptide concentrations in picomolar 48H 0.5: peptide 0.5 pM; for % CD8+ T cells producing IFN-γ peptide concentrations in picomolar 24H 5·10^3 / Geometric mean IFN-γ in arbitrary fluorescence units peptide concentrations in picomolar 24H 5·10^3 / % CD8+ T cells producing IFN-γ peptide concentrations in picomolar 48H 5·10^3 / Geometric mean IFN-γ in arbitrary fluorescence units peptide concentrations in picomolar 48H 5·10^3: peptide 5·10^3 pM

For E[2-AOC]AGIGI[4FPHE]T[OM-HS], the “% inhibition at T=4H and T=24H FP 4h” value [1] was 78%, the “% inhibition at T=4H and T=24H FP 24h” value [1] was 66% and the “IC50 Ratio” value [1] was 1.9.
[3-PYRA]MYSDFHFI was tested, and the “% inhibition at T=4H and T=24H FP 4H” value [1] was 79% and the “% inhibition at T=4H and T=24H FP 24H” value [1] was 76%.
In the case of [CSCF3][2-AOC]YDFFVWL, the “% inhibition at T=4H and T=24H FP 4H” value [1] is reported as 91% and the “% inhibition at T=4H and T=24H FP 24H” value [1] is reported as 79%.
[CSME]AAGIGI[4-FPHE]TV was tested, and the “% inhibition at T=4H and T=24H FP 4h” value [1] was 63% and the “% inhibition at T=4H and T=24H FP 24h” value [1] was 58%.
In the case of [CSME][2-AOC]AGIGILTV, the “% CD8+ T cells producing IFN-γ 0H” value ([2]; peptide 0.5 pM) is reported as 0%, the “Geometric mean IFN-γ in arbitrary fluorescence units 0H” value ([2]; peptide 0.5 pM) is reported as 101 arbitrary fluorescence units and the “% CD8+ T cells producing IFN-γ 2H” value ([2]; peptide 0.5 pM) is reported as 27%. For the same substance, the “Geometric mean IFN-γ in arbitrary fluorescence units 2H” value ([2]; peptide 0.5 pM) was 219 arbitrary fluorescence units, the “% CD8+ T cells producing IFN-γ 4H” value ([2]; peptide 0.5 pM) was 29% and the “Geometric mean IFN-γ in arbitrary fluorescence units 4H” value ([2]; peptide 0.5 pM) was 368 arbitrary fluorescence units. For the same substance, the “% CD8+ T cells producing IFN-γ 24H” value ([2]; peptide 0.5 pM) was 18%, the “Geometric mean IFN-γ in arbitrary fluorescence units 24H” value ([2]; peptide 0.5 pM) was 167 arbitrary fluorescence units and the “% CD8+ T cells producing IFN-γ 48H” value ([2]; peptide 0.5 pM) was 7%. The “Geometric mean IFN-γ in arbitrary fluorescence units 48H” value ([2]; peptide 0.5 pM) was 119 arbitrary fluorescence units, the “% CD8+ T cells producing IFN-γ 0H” value ([2]; peptide 50 pM) was 0% and the “Geometric mean IFN-γ in arbitrary fluorescence units 0H” value ([2]; peptide 50 pM) was 111 arbitrary fluorescence units. The “% CD8+ T cells producing IFN-γ 2H” value ([2]; peptide 50 pM) was 28%, the “Geometric mean IFN-γ in arbitrary fluorescence units 2H” value ([2]; peptide 50 pM) was 249 arbitrary fluorescence units and the “% CD8+ T cells producing IFN-γ 4H” value ([2]; peptide 50 pM) was 31%. The “Geometric mean IFN-γ in arbitrary fluorescence units 4H” value ([2]; peptide 50 pM) was 563 arbitrary fluorescence units, the “% CD8+ T cells producing IFN-γ 24H” value ([2]; peptide 50 pM) was 27% and the “Geometric mean IFN-γ in arbitrary fluorescence units 24H” value ([2]; peptide 50 pM) was 397 arbitrary fluorescence units. For the same substance, the “% CD8+ T cells producing IFN-γ 48H” value ([2]; peptide 50 pM) was 20% and the “Geometric mean IFN-γ in arbitrary fluorescence units 48H” value ([2]; peptide 50 pM) was 288 arbitrary fluorescence units.
[CSME][2-AOC]AGIGILT[PRG] was tested, and the “% inhibition at T=4H and T=24H FP 4h” value [1] was 72%, the “% inhibition at T=4H and T=24H FP 24h” value [1] was 70% and the “IC50 Ratio” value [1] was 14.8.
In the case of [CSME][2-AOC]KDVEERV, the “% inhibition at T=4H and T=24H FP 4h” value [1] is reported as 60% and the “% inhibition at T=4H and T=24H FP 24h” value [1] is reported as 56%.
[CSME][2-AOC]YDFFVWL was tested, and the “% inhibition at T=4H and T=24H FP 4H” value [1] was 88%, the “% inhibition at T=4H and T=24H FP 24H” value [1] was 76% and the “% inhibition at T=4H and T=24H FP 4h” value [1] was 88%. For the same substance, the “% inhibition at T=4H and T=24H FP 24h” value [1] was 76%, the “% CD8+ T cells producing IFN-γ peptide concentrations in picomolar 24H 0.5” value ([3]; 24H) was 1% and the “Geometric mean IFN-γ in arbitrary fluorescence units peptide concentrations in picomolar 24H 0.5” value ([3]; 24H) was 71 arbitrary fluorescence units. The “% CD8+ T cells producing IFN-γ peptide concentrations in picomolar 24H 50” value ([3]; 24H, peptide 50 pM) was 20%, the “% CD8+ T cells producing IFN-γ peptide concentrations in picomolar 24H 5·10^3” value ([3]; 24H) was 30% and the “Geometric mean IFN-γ in arbitrary fluorescence units peptide concentrations in picomolar 24H 5·10^3” value ([3]; 24H) was 264 arbitrary fluorescence units. The “% CD8+ T cells producing IFN-γ peptide concentrations in picomolar 48H 0.5” value ([3]; 48H) was 0%, the “Geometric mean IFN-γ in arbitrary fluorescence units peptide concentrations in picomolar 48H 0.5” value ([3]; 48H) was 68 arbitrary fluorescence units and the “% CD8+ T cells producing IFN-γ peptide concentrations in picomolar 48H 50” value ([3]; 48H, peptide 50 pM) was 5%. The “% CD8+ T cells producing IFN-γ peptide concentrations in picomolar 48H 5·10^3” value ([3]; 48H) was 33% and the “Geometric mean IFN-γ in arbitrary fluorescence units peptide concentrations in picomolar 48H 5·10^3” value ([3]; 48H) was 224 arbitrary fluorescence units.
[CSME][2-AOC]YDFFVW[PRG] was tested, and the “% inhibition at T=4H and T=24H FP 4h” value [1] was 98%, the “% inhibition at T=4H and T=24H FP 24h” value [1] was 89% and the “% CD8+ T cells producing IFN-γ peptide concentrations in picomolar 24H 0.5” value ([3]; 24H) was 0%. The “Geometric mean IFN-γ in arbitrary fluorescence units peptide concentrations in picomolar 24H 0.5” value ([3]; 24H) was 67 arbitrary fluorescence units, the “% CD8+ T cells producing IFN-γ peptide concentrations in picomolar 24H 50” value ([3]; 24H, peptide 50 pM) was 1% and the “Geometric mean IFN-γ in arbitrary fluorescence units peptide concentrations in picomolar 24H 50” value ([3]; 24H, peptide 50 pM) was 73 arbitrary fluorescence units. For the same substance, the “% CD8+ T cells producing IFN-γ peptide concentrations in picomolar 24H 5·10^3” value ([3]; 24H) was 7%, the “Geometric mean IFN-γ in arbitrary fluorescence units peptide concentrations in picomolar 24H 5·10^3” value ([3]; 24H) was 84 arbitrary fluorescence units and the “% CD8+ T cells producing IFN-γ peptide concentrations in picomolar 48H 0.5” value ([3]; 48H) was 0%. The “Geometric mean IFN-γ in arbitrary fluorescence units peptide concentrations in picomolar 48H 0.5” value ([3]; 48H) was 67 arbitrary fluorescence units, the “% CD8+ T cells producing IFN-γ peptide concentrations in picomolar 48H 50” value ([3]; 48H, peptide 50 pM) was 0% and the “Geometric mean IFN-γ in arbitrary fluorescence units peptide concentrations in picomolar 48H 50” value ([3]; 48H, peptide 50 pM) was 6 arbitrary fluorescence units. For the same substance, the “% CD8+ T cells producing IFN-γ peptide concentrations in picomolar 48H 5·10^3” value ([3]; 48H) was 0% and the “Geometric mean IFN-γ in arbitrary fluorescence units peptide concentrations in picomolar 48H 5·10^3” value ([3]; 48H) was 72 arbitrary fluorescence units.
